From US9261498B2, “Biomarker for sensitivity to mTOR inhibitor therapy in kidney cancer” (The Regents of the University of California, priority 2005, dated 2016)
Entries after “also recorded” stand apart in the source; their conditions may differ.

Assays:
Format in all cases: cell-based, human
[1] = test system: SN12C-VHL shRNA cells; assay: In vitro growth (cell counts), VHL knockdown cells
Protocol: (§1) FIGS. 1A-1E. Effects of VHL knockdown on sensitivity to CCI-779. (a) Immunoblotting of lysates derived from shRNA and control (empty vector, V) in SN12C, using antibodies against VHL (both isoforms detected), HIF-1α, HIF-2α, GLUT-1, CA-IX and β-Actin (as a loading control). (b) SN12C-CSCG and SN12C-VHLshRNA cells (1×10^5) were cultured in 10% serum rich media, in the presence of vehicle, 1 or 10 nM of CCI-779 for 5 days. Cell growth was measured by cell counts (n=3). […] (c) SN12C-CSCG (C1) and SN12C-CSCG shVHL RNA (C2) cells were injected into SCID mice at a dose of 1×10^6 cells per mouse (n=30). When tumor volume reached 150 mm^3, mice were randomized to daily treatment with vehicle or 0.1 mg/kg of CCI-779. The change in tumor volume is plotted. Phosphorylated-S6 protein in SN12C-CSCG and SN12C-VHL shRNA xenograft tumors treated with vehicle or 0.1 mg/kg of CCI-779 was measured by immunoblot C3 and C4). Equal loading verified by actin immunoblots. […] (e) Schematic of shRNA-expressing lentivirus directed against VHL in pCSCG vector.
(§2) For in vitro experiments, cells (5×10^4) were plated and treated with 1 and 10 nM CCI-779 (kind gift of J. Gibbons, Wyeth) or vehicle (ethanol). On day 5-post treatment, cells were trypsinized, resuspended in DMEM with 10% FBS and counted using the VI CELL counter (Beckman Coulter), according to the manufacturer's instructions. Cell counts were done in triplicate and repeated on at least 3 independent occasions. In vivo tumorigenicity was measured by injection of 5×10^5 SN12C-CSCG, ACHN-CSCG, SN12C-CSCG-VHLshRNAi, ACHN-CSCG-VHLshRNAi, SN12C-CSCG-VHLshRNAi-pBABE, SN12C-CSCG-VHLshRNAi-pBABE-HA-HIF-2α (P405A; P531A) cells in 100 μl of Matrigel (Collaborative Biomedical) subcutaneously into the flanks of SCID mice. Tumor size were measured weekly in three dimensions using calipers as described (Klein, K. A. et al. Nat Med 3, 402-8 (1997)). When tumors reached 200 mm^3, all tumors received 0.1 mg/kg/daily of CCI-779 or vehicle. All mouse experiments were performed in compliance with the guidelines of the Animal Research Committee of the University of California at Los Angeles.
(§3) SN12C and ACHN (NCI60, DTP) were maintained in Dulbecco's modified Eagle's Medium (DMEM) supplemented with 10% FBS. […] On day 5-post treatment, cells were trypsinized, resuspended in DMEM with 10% FBS and counted using the VI-Cell XR automated cell viability analyzer (Beckmann Coulter). […] In vivo tumorigenicity was measured by injection of 5×10^5 SN12C-CSCG, ACHN-CSCG, SN12C-CSCG-VHL shRNA, ACHN-CSCG-VHL shRNA, SN12C-CSCG-VHL shRNA-pBABE, SN12C-CSCG-VHL shRNA-pBABE-HA-HIF-2α (P405A; P531A) cells in 100 μl of Matrigel (Collaborative Biomedical) subcutaneously into the flanks of SCID mice. Tumor size were measured weekly in three dimensions using calipers as described. […]

[2] = test system: ACHN-VHL shRNA cells; assay: In vitro growth (cell counts), VHL knockdown cells
Protocol: as §1, §2, §3

[3] = test system: SN12C-CSCG cells; assay: In vitro growth (cell counts), parental empty-vector cells; details: 1 and 10 nM CCI-779, day 5, 10% serum; b106 at 10 nM
Protocol: (§4) FIGS. 1A-1E. Effects of VHL knockdown on sensitivity to CCI-779. (a) Immunoblotting of lysates derived from shRNA and control (empty vector, V) in SN12C, using antibodies against VHL (both isoforms detected), HIF-1α, HIF-2α, GLUT-1, CA-IX and β-Actin (as a loading control). (b) SN12C-CSCG and SN12C-VHLshRNA cells (1×10^5) were cultured in 10% serum rich media, in the presence of vehicle, 1 or 10 nM of CCI-779 for 5 days. Cell growth was measured by cell counts (n=3). […] (c) SN12C-CSCG (C1) and SN12C-CSCG shVHL RNA (C2) cells were injected into SCID mice at a dose of 1×10^6 cells per mouse (n=30). […] Phosphorylated-S6 protein in SN12C-CSCG and SN12C-VHL shRNA xenograft tumors treated with vehicle or 0.1 mg/kg of CCI-779 was measured by immunoblot C3 and C4). […]
(§5) For in vitro experiments, cells (5×10^4) were plated and treated with 1 and 10 nM CCI-779 (kind gift of J. Gibbons, Wyeth) or vehicle (ethanol). On day 5-post treatment, cells were trypsinized, resuspended in DMEM with 10% FBS and counted using the VI CELL counter (Beckman Coulter), according to the manufacturer's instructions. […] In vivo tumorigenicity was measured by injection of 5×10^5 SN12C-CSCG, ACHN-CSCG, SN12C-CSCG-VHLshRNAi, ACHN-CSCG-VHLshRNAi, SN12C-CSCG-VHLshRNAi-pBABE, SN12C-CSCG-VHLshRNAi-pBABE-HA-HIF-2α (P405A; P531A) cells in 100 μl of Matrigel (Collaborative Biomedical) subcutaneously into the flanks of SCID mice. […]

[4] = test system: ACHN-CSCG cells; assay: as above; details: 10 nM CCI-779, day 5
Protocol: as §4, §5

[5] = dose-dependent, 1 and 10 nM CCI-779, day 5

## CO[C@H]1C[C@@H]2CC[C@@H](C)[C@@](O)(O2)C(=O)C(=O)N2CCCC[C@H]2C(=O)O[C@H]([C@H](C)C[C@@H]2CC[C@@H](OC(=O)C(C)(CO)CO)[C@H](OC)C2)CC(=O)[C@H](C)/C=C(\C)[C@@H](O)[C@@H](OC)C(=O)[C@H](C)C[C@H](C)/C=C/C=C/C=C/1C [CCI-779]
[1]; 1 and 10 nM, in vitro
  sensitivity to CCI-779 in contrast to the parental cells: increased sensitivity
[1]; [5]
  reduction of cell growth: 70%
[2]; FIG. 1D
  sensitivity to CCI-779 after stable VHL knockdown: enhanced sensitivity
[2]; [5]
  reduction of cell growth: 70%
[3]
  cell growth: not affected; also recorded: not sensitive
[4]
  cell growth: not affected
